According to patent US4540700A, “Treatment of diabetic complications with certain spiro-imidazolidine-diones” (Alcon Laboratories, Inc., priority 1984, dated 1985):
Where two headings read alike, the source gives them in different places. Values belong to the molecule of their own block, whether it stands above or below them.

Key:
Assay type in all cases: biochemical
Rat Aldose Reductase = Rat Aldose Reductase (Rattus norvegicus, UniProt P07943); test: Rat Aldose Reductase Inhibition; conditions: for inhibition at 10 µM: 10^-5, read-out: In vitro Aldose Reductase Inhibition; for inhibition at 1 µM: 10^-6, read-out: In vitro Aldose Reductase Inhibition; for inhibition at 0.1 µM: 10^-7, read-out: In vitro Aldose Reductase Inhibition; for inhibition at 0.01 µM: 10^-8, read-out: In vitro Aldose Reductase Inhibition; for inhibition at 100 µM: 10^-4, read-out: In vitro Aldose Reductase Inhibition
Excerpt: Biophysical Chemistry, 8 (1978) 81-85; P. F. Kador, L. O. Merola and J. H
Kinoshita Documenta Ophthamologica, 18 (1979) 117.

Human Aldose Reductase = Human Aldose Reductase (Homo sapiens, UniProt P15121); test: Human Aldose Reductase Inhibition
aldose reductase = aldose reductase inhibition of spiro-xanthene-imidazolidines (in words)
[1] = 10^-4, human, read-out: In vitro Aldose Reductase Inhibition
[2] = 10^-5, human, read-out: In vitro Aldose Reductase Inhibition
[3] = 10^-6, human, read-out: In vitro Aldose Reductase Inhibition
[4] = read-out: In vitro Aldose Reductase Inhibition

SMILES: Nc1cccc2c1-c1ccccc1C21NC(=O)NC1=O (racemic) [G, dl-Spiro-[4-aminofluoren-9,4'-imidazolidine]-2',5'-dione]
inhibition at 100 µM (Human Aldose Reductase; [1]): 50% | inhibition at 10 µM (Human Aldose Reductase; [2]): 28% | inhibition at 1 µM (Human Aldose Reductase; [3]): 20%

SMILES: O=C1NC(=O)C2(N1)c1cc(Cl)ccc1-c1ccc(Cl)cc12 [Compound B, Spiro-[2,7-dichlorofluoren-9,4'-imidazolidine]-2',5'-dione]
In vitro Aldose Reductase Inhibition (Human Aldose Reductase; 10^-4, human): 65 | In vitro Aldose Reductase Inhibition (Human Aldose Reductase; 10^-5, human): 30 | In vitro Aldose Reductase Inhibition (Human Aldose Reductase; 10^-6, human): 12

SMILES: O=C1NC(=O)C2(N1)c1ccccc1-c1ccc([N+](=O)[O-])cc12 (racemic) [C, dl-Spiro-[2-nitrofluoren-9,4'-imidazolidine]-2',5'-dione]
inhibition at 100 µM (Human Aldose Reductase; [1]): 65% | inhibition at 10 µM (Human Aldose Reductase; [2]): 20% | inhibition at 1 µM (Human Aldose Reductase; [3]): 8%

SMILES: O=C1NC(=O)C2(N1)c1cc(Br)ccc1-c1ccc(Br)cc12 [F, Spiro-[2,7-dibromofluoren-9,4'-imidazolidine]-2',5'-dione]
inhibition at 10 µM (Rat Aldose Reductase): 94% | inhibition at 1 µM (Rat Aldose Reductase): 76% | inhibition at 0.1 µM (Rat Aldose Reductase): 55% | inhibition at 0.01 µM (Rat Aldose Reductase): 12%

SMILES: Nc1ccc2c(c1)C1(NC(=O)NC1=O)c1cc(N)ccc1-2 [I, Spiro-[2,7-diaminofluoren-9,4'-imidazolidine]-2',5'-dione]
inhibition at 100 µM (Human Aldose Reductase; [1]): 50% | inhibition at 10 µM (Human Aldose Reductase; [2]): 25% | inhibition at 1 µM (Human Aldose Reductase; [3]): 10%

SMILES: Nc1ccc2c(c1)C1(NC(=O)NC1=O)c1ccccc1-2 (racemic) [H, dl-Spiro-[2-aminofluoren-9,4'-imidazolidine]-2',5'-dione]
inhibition at 100 µM (Human Aldose Reductase; [1]): 43% | inhibition at 10 µM (Human Aldose Reductase; [2]): 31% | inhibition at 1 µM (Human Aldose Reductase; [3]): 0%

SMILES: O=C1NC(=O)C2(N1)c1ccccc1-c1ccc(Br)cc12 (racemic) [E, dl-Spiro-[2-bromofluoren-9,4'-imidazolidine]-2', 5'-dione]
inhibition at 100 µM (Rat Aldose Reductase): 100% | inhibition at 10 µM (Rat Aldose Reductase): 82% | inhibition at 1 µM (Rat Aldose Reductase): 62% | inhibition at 0.1 µM (Rat Aldose Reductase): 33% | inhibition at 0.01 µM (Rat Aldose Reductase): 8%

SMILES: O=C1NC(=O)C2(N1)c1ccccc1-c1ccccc12 [A, Spiro-(fluoren-9,4'-imidazolidine)-2',5'-dione]
IC50 (Human Aldose Reductase; human): 1200 nM | inhibition at 0.1 µM (Human Aldose Reductase; [4]): 13% | inhibition at 1 µM (Human Aldose Reductase; [4]): 49% | inhibition at 10 µM (Human Aldose Reductase; [4]): 84% | inhibition at 100 µM (Human Aldose Reductase; [4]): 89%

SMILES: O=C1NC(=O)C2(N1)c1cc([N+](=O)[O-])ccc1-c1ccc([N+](=O)[O-])cc12 [Compound D, Spiro [2,7-dinitrofluoren-9,4'-imidazolidine]-2',5'-dione]
inhibition at 1 µM (Human Aldose Reductase; [4]): 20% | inhibition at 10 µM (Human Aldose Reductase; [4]): 76% | inhibition at 100 µM (Human Aldose Reductase; [4]): 100%

SMILES: O=C1NC(=O)C2(N1)c1ccccc1-c1ccc(I)cc12 (racemic) [J, dl-Spiro-[2-iodofluoren-9,4'-imidazolidine]-2',5'-dione]
inhibition at 100 µM (Human Aldose Reductase; [1]): 94% | inhibition at 10 µM (Human Aldose Reductase; [2]): 88% | inhibition at 1 µM (Human Aldose Reductase; [3]): 77% | inhibition at 0.1 µM (Human Aldose Reductase; 10^-7, human, read-out: In vitro Aldose Reductase Inhibition): 39% | inhibition at 0.01 µM (Human Aldose Reductase; 10^-8, human, read-out: In vitro Aldose Reductase Inhibition): 0%

The next lines start with the values.

IC50 (Rat Aldose Reductase): 1700 nM
SMILES: C[S+]([O-])c1ccc2c(c1)C1(NC(=O)NC1=O)c1ccccc1-2 (racemic) [Q, Spiro-[2-(R,S)-methylsulfinylfluoren-9, (R,S)-4'-imidazolidine]-2',5'-dione]

IC50 (Rat Aldose Reductase): 460 nM
SMILES: O=C1NC(=O)C2(N1)c1ccccc1-c1c(F)cccc12 (racemic) [U, dl-Spiro-[4-fluorofluoren-9,4'-imidazolidine]-2',5'-dione]

activity as aldose reductase inhibitors relative to corresponding tetracyclic fluorene compounds (aldose reductase): unexpectedly less active
SMILES: O=C1NC(=O)C2(N1)c1ccccc1Oc1ccccc12 [spiro-(xanthen-9,4'-imidazolidine)-2',5'-dione]

IC50 (Rat Aldose Reductase): 590 nM
SMILES: O=C1NC(=O)C2(N1)c1ccccc1-c1cccc(F)c12 (racemic) [S, dl-Spiro-[1-fluorofluoren-9,4'-imidazolidine]-2',5'-dione]

activity against human aldose reductase as compared to rat aldose reductase (Human Aldose Reductase; human vs rat): one fourth
SMILES: O=C1NC(=O)C2(CCOc3ccc(F)cc32)N1 (stereo not shown) [Sarges Resolved, dSpiro-(6-fluorochroman-4,4imidazolidine)-2',5dione, reference compound]

IC50 (Rat Aldose Reductase): 420 nM
SMILES: CSc1ccc2c(c1)C1(NC(=O)NC1=O)c1ccccc1-2 (racemic) [P, dl-Spiro-[2-methylthiofluoren-9,4'-imidazolidine]-2',5'-dione]

activity as aldose reductase inhibitors relative to corresponding tetracyclic fluorene compounds (aldose reductase): unexpectedly less active
SMILES: O=C1NC(=O)C2(N1)c1cc(F)ccc1Oc1ccc(F)cc12 [spiro-(2,7-difluroxanthen-9,4'-imidazolidine)-2',5'-dione]

inhibition at 100 µM (Rat Aldose Reductase): 89% | inhibition at 10 µM (Rat Aldose Reductase): 54% | inhibition at 1 µM (Rat Aldose Reductase): 0%
SMILES: O=C1NC(=O)C2(N1)c1ccccc1-c1ccc(C(=O)O)cc12 (racemic) [N, dl-Spiro-[2-carboxyfluoren-9,4'-imidazolidine]-2',5'-dione]

IC50 (Rat Aldose Reductase): 5000 nM
SMILES: CS(=O)(=O)c1ccc2c(c1)C1(NC(=O)NC1=O)c1ccccc1-2 (racemic) [R, dl-Spiro-(2-methylsulfonylfluoren-9,4'-imidazolidine)-2',5'-dione]

inhibition at 100 µM (Rat Aldose Reductase): 96% | inhibition at 10 µM (Rat Aldose Reductase): 85% | inhibition at 1 µM (Rat Aldose Reductase): 47% | inhibition at 0.1 µM (Rat Aldose Reductase): 6%
SMILES: Cc1cccc2c1C1(NC(=O)NC1=O)c1ccccc1-2 (racemic) [K, dl-Spiro-[1-methylfluoren-9,4'-imidazolidine]-2',5'-dione]
